According to the supplement of paper PMC4862054:

Assays:
Conditions in all cases: 72 h
[1] = tested on: BT-474
Method in brief: (§1)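 Breast cancer cell lines (20 µl suspension) were seeded into 384-well plates holding compound at 5 concentrations in 10-fold steps over a compound-specific 10,000-fold range, then incubated 72 h. Cell death was read first by CellTox Green fluorescence (485/520 nm), then viability by CellTiter-Glo luminescence after 10 min at room temperature. Each plate was normalised to 0.1 % DMSO and a positive kill control. EC50 was fitted from the dose-response curves and censored at the top concentration.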

[2] = tested on: BT-549
Method in brief: as §1

[3] = tested on: CAL-120
Method in brief: as §1

[4] = tested on: CAL-148
Method in brief: as §1

[5] = tested on: CAL-51
Method in brief: as §1

[6] = tested on: CAL-85-1
Method in brief: as §1

[7] = tested on: DU-4475
Method in brief: as §1

[8] = tested on: HCC1143
Method in brief: as §1

[9] = tested on: HCC1937
Method in brief: as §1

[10] = tested on: HDQ-P1
Method in brief: as §1

[11] = tested on: Hs578T
Method in brief: as §1

[12] = tested on: MDA-MB-436
Method in brief: as §1

[13] = tested on: MDA-MB-453
Method in brief: as §1

[14] = tested on: MDA-MB-468
Method in brief: as §1

[15] = tested on: MFM-223
Method in brief: as §1

[16] = tested on: SK-BR-3
Method in brief: as §1

[17] = tested on: CAL-148; remark: listed apart in the source
Method in brief: (§2)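 Viability of breast cancer cell lines was measured with CellTiter-Blue after 72 h of incubation on compound-loaded 384-well plates. Cells were seeded in 20 µl onto compound dissolved in 5 µl medium, and 2.5 µl reagent was added for 2 h at 37 °C before reading at 560/590 nm. EC50 was fitted from percent-inhibition dose-response data censored at the highest concentration, normalised per plate to vehicle and a positive kill control, with zero drug sensitivity score rows dropped.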

[18] = tested on: CAL-51; remark: listed apart in the source
Method in brief: as §2

[19] = tested on: CAL-85-1; remark: listed apart in the source
Method in brief: as §2

[20] = tested on: DU-4475; remark: listed apart in the source
Method in brief: as §2

[21] = tested on: HDQ-P1; remark: listed apart in the source
Method in brief: as §2

[22] = tested on: MDA-MB-453; remark: listed apart in the source
Method in brief: as §2

[23] = tested on: BT-549; remark: listed apart in the source
Method in brief: as §2

[24] = tested on: CAL-120; remark: listed apart in the source
Method in brief: as §2

[25] = tested on: HCC1143; remark: listed apart in the source
Method in brief: as §2

[26] = tested on: HCC1599
Method in brief: as §2

[27] = tested on: HCC1937; remark: listed apart in the source
Method in brief: as §2

[28] = tested on: Hs578T; remark: listed apart in the source
Method in brief: as §2

[29] = tested on: MDA-MB-468; remark: listed apart in the source
Method in brief: as §2

[30] = tested on: MFM-223; remark: listed apart in the source
Method in brief: as §2

[31] = tested on: SK-BR-3; remark: listed apart in the source
Method in brief: as §2

[32] = tested on: HCC1937; remark: listed apart in the source
Procedure: (§3)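 Drug sensitivity and resistance testing (DSRT) of breast cancer cell lines in 384-well plates, 5 concentrations in 10-fold dilutions over a compound-specific 10,000-fold range. After 72 h, cytotoxicity was read by CellTox Green fluorescence and viability by CellTiter-Glo luminescence (multiplexed), normalised to DMSO and benzethonium chloride controls. EC50 is the inflection point of the fitted dose-response curve (bottom asymptote free, so it can be relative for partial curves) and is censored at the highest tested concentration. Rows with DSS 0 (no meaningful response) were excluded.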

[33] = tested on: MDA-MB-436; remark: listed apart in the source
Method in brief: as §2

[34] = tested on: MDA-MB-453; remark: listed apart in the source
Procedure: as §3

Structure (SMILES)	EC50, CellTiter-Glo [1]	EC50, CellTiter-Glo [2]	EC50, CellTiter-Glo [3]	EC50, CellTiter-Glo [4]	EC50, CellTiter-Glo [5]	EC50, CellTiter-Glo [6]	EC50, CellTiter-Glo [7]	EC50, CellTiter-Glo [8]	EC50, CellTiter-Glo [9]	EC50, CellTiter-Glo [10]	EC50, CellTiter-Glo [11]	EC50, CellTiter-Glo [12]	EC50, CellTiter-Glo [13]	EC50, CellTiter-Glo [14]	EC50, CellTiter-Glo [15]	EC50, CellTiter-Glo [16]	EC50, CellTiter-Blue viability [17]	EC50, CellTiter-Blue viability [18]	EC50, CellTiter-Blue viability [19]	EC50, CellTiter-Blue viability [20]	EC50, CellTiter-Blue viability [21]	EC50, CellTiter-Blue viability [22]	EC50, CellTiter-Blue viability [23]	EC50, CellTiter-Blue viability [24]	EC50, CellTiter-Blue viability [25]	EC50, CellTiter-Blue viability [26]	EC50, CellTiter-Blue viability [27]	EC50, CellTiter-Blue viability [28]	EC50, CellTiter-Blue viability [29]	EC50, CellTiter-Blue viability [30]	EC50, CellTiter-Blue viability [31]	EC50, CellTox Green [32]	EC50, CellTiter-Blue viability [33]	EC50, CellTox Green [34]
CO[C@H]1C[C@@H]2CC[C@@H](C)[C@@](O)(O2)C(=O)C(=O)N2CCCC[C@H]2C(=O)O[C@H]([C@H](C)C[C@@H]2CC[C@@H](O)[C@H](OC)C2)CC(=O)[C@H](C)/C=C(\C)[C@@H](O)[C@@H](OC)C(=O)[C@H](C)C[C@H](C)/C=C/C=C/C=C/1C [Sirolimus]	3.4 nM	1.85 nM	3.4 nM	3.6 nM	2.33 nM	0.95 nM	16.1 nM	3.09 nM	6.4 nM	7.92 nM	1.24 nM	2.96 nM	4.84 nM	0.65 nM	3.87 nM	4.12 nM	1.13 nM	0.79 nM	0.46 nM	1.24 nM	0.55 nM	0.71 nM	0.2 nM	1.32 nM	1.33 nM	1.57 nM	0.16 nM	0.14 nM	0.26 nM	0.18 nM	3.42 nM	98.7 nM		
CC/C(=C(\c1ccccc1)c1ccc(OCCN(C)C)cc1)c1ccccc1 [Tamoxifen]			> 10000 nM		233 nM				> 10000 nM				2560 nM		3370 nM	> 10000 nM						5970 nM	3420 nM						4420 nM			325 nM	7520 nM	7240 nM
